Measured values: patent US20240381872A1, “SUBSTITUTED 2,3-DIHYDRO[1,3]THIAZOLO[4,5-B]PYRIDINES, SALTS THEREOF AND THEIR USE AS HERBICIDALLY ACTIVE SUBSTANCES” (BAYER AKTIENGESELLSCHAFT, priority 2021, published 2024)

Tested on: Digitaria sanguinalis (DIGSA)
Assay: Herbicidal post-emergence action, section E (Table E4)
Assay type: in vivo
Conditions: application rate 80 g/ha; assessed visually ca. 3 weeks after treatment vs untreated controls; 100% = plants have died off, 0% = as control plants
From the text: Seeds of mono- and dicotyledonous weed plants and crop plants were sown, in plastic or organic planting pots, in sandy loam, covered with soil and grown in a greenhouse under controlled growth conditions. 2 to 3 weeks after sowing, the test plants were sprayed in the single-leaf stage. The compounds according to the invention, formulated in form of wettable powders (WP) or as emulsifiable concentrates (EC), were sprayed onto the green plant parts as aqueous suspension or emulsion, with the addition of 0.5% of an additive, at an application rate of 600 l of water/ha (converted). The test plants were placed in the greenhouse for ca. 3 weeks under optimum growth conditions, and then the effect of the preparations was assessed visually in comparison with untreated controls (herbicidal effect in percent (%): 100% effect=plants have died off, 0% effect=as control plants).

Cc1cc2c(nc1-c1ccccc1F)NCS2 [Example I-007, 5-(2-fluorophenyl)-6-methyl-2,3-dihydro[1,3]thiazolo[4,5-b]pyridine]
post-emergence activity against DIGSA: 90%
